{"source": "patent US20020137929A1", "about": "“1 - (3-heterocyclylphenyl) isothiourea, -isourea, -guanidine and -amidine herbicidal agents” (Intellectual Property Department, BASF Aktiengesellschaft, priority 1998, published 2002)", "key": {"[1]": {"system": "GLXMAW (Soybean, Williams)", "assay": "Preemergence herbicidal evaluation", "type": "in vivo, Glycine max, (L.) Merr. cv Williams", "settings": "rated 4-5 weeks after treatment; for GLXMAW rating: preemergence, 0-9 scale", "summary_of_the_method": "(§1)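 Steps: mix seeds into potting soil; plant atop ~1 inch soil; spray compound in aqueous acetone (~0.0156-0.500 kg/ha equivalent); maintain in greenhouse with watering; rate visually 0-9 versus control at 4-5 weeks.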"}, "[2]": {"system": "MOOVA (Monochoria)", "assay": "Postemergence weed control under flooded paddy conditions", "type": "in vivo, Monochoria vaginalis", "settings": "postemergence weeds", "summary_of_the_method": "(§2)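 Injury ratings (0–9 scale covering stand, vigor, malformation, size, chlorosis and overall appearance versus control) were made three to four weeks after treatment. Test material, about 0.0313 to 0.500 kg/ha a.i. in 50/50 v/v aqueous/acetone, was added to flood water 1.5 to 3 cm deep over 3 to 5 cm weeds and 1.5 to 2.5 leaf rice.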"}, "[3]": {"system": "ZEAMX (Corn, Field)", "assay": "Postemergence herbicidal evaluation", "type": "in vivo, Zea mays", "settings": "for herbicidal rating ZEAMX / ZEAMX herbicidal rating: postemergence", "summary_of_the_method": "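Scores (0–9) reflect plant stand, vigor, malformation, size, chlorosis and general appearance relative to control, read 4 to 5 weeks after treatment and averaged where tests were repeated. Application: about 0.0156–0.500 kg/ha sprayed at 40 psi onto two-week seedlings.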"}, "[4]": {"system": "ABUTH (Velvetleaf)", "assay": "Preemergence herbicidal evaluation", "type": "in vivo, Abutilon theophrasti", "settings": "rated 4-5 weeks after treatment; for ABUTH rating: preemergence, 0-9 scale", "summary_of_the_method": "as §1"}, "[5]": {"system": "SAGPY (Arrowhead (Pygmaea))", "assay": "Postemergence weed control under flooded paddy conditions", "type": "in vivo, Sagittaria pygmaea", "settings": "postemergence weeds", "summary_of_the_method": "as §2"}, "[6]": {"system": "AMBEL (Ragweed, Common)", "assay": "Preemergence herbicidal evaluation", "type": "in vivo, Ambrosia artemisifolia", "settings": "rated 4-5 weeks after treatment; for AMBEL rating: preemergence, 0-9 scale", "summary_of_the_method": "as §1"}, "[7]": {"settings": "Rate 0.0313 kg/ha, rated 3 to 4 weeks after treatment"}, "[8]": {"settings": "Rate 0.0625 kg/ha, rated 3 to 4 weeks after treatment"}, "[9]": {"settings": "Rate 0.1250 kg/ha, rated 3 to 4 weeks after treatment"}, "[10]": {"settings": "Rate 0.2500 kg/ha, rated 3 to 4 weeks after treatment"}, "[11]": {"settings": "Rate 0.5000 kg/ha, rated 3 to 4 weeks after treatment"}, "[12]": {"settings": "rate 0.0313 kg/ha, 3-4 weeks after treatment"}, "[13]": {"settings": "rate 0.0625 kg/ha, 3-4 weeks after treatment"}, "[14]": {"settings": "rate 0.1250 kg/ha, 3-4 weeks after treatment"}, "[15]": {"settings": "rate 0.2500 kg/ha, 3-4 weeks after treatment"}}, "data": [{"smiles": "Cn1c(C(F)(F)F)cc(=O)n(-c2cc(N=C3SCC(=O)N3CC(=O)OCC#N)c(Cl)cc2F)c1=O", "note": "[Compound 109, 2-{{2-Chloro-5-[3,6-dihydro-3-methyl-2,6-dioxo-4-(trifluoromethyl)-1(2H)-pyrimidinyl]-4-fluorophenyl}imino}-4-oxo-3-thiazolidineacetic acid, ester with glycolonitrile]", "values": [{"measurement": "Preemergence herbicidal rating GLXMAW", "setting": "[1]; rate 0.0156 kg/ha", "value": 1.5}, {"measurement": "Preemergence herbicidal rating GLXMAW", "setting": "[1]; rate 0.0313 kg/ha", "value": 2.0}, {"measurement": "Preemergence herbicidal rating GLXMAW", "setting": "[1]; rate 0.0625 kg/ha", "value": 5.0}, {"measurement": "Preemergence herbicidal rating GLXMAW", "setting": "[1]; rate 0.1250 kg/ha", "value": 7.5}, {"measurement": "Preemergence herbicidal rating GLXMAW", "setting": "[1]; rate 0.2500 kg/ha", "value": 9.0}, {"measurement": "Preemergence herbicidal rating GLXMAW", "setting": "[1]; rate 0.5000 kg/ha", "value": 9.0}, {"measurement": "Herbicidal rating MOOVA", "setting": "[2]; [7]", "value": 2.0}, {"measurement": "Herbicidal rating MOOVA", "setting": "[2]; [8]", "value": 4.0}, {"measurement": "Herbicidal rating MOOVA", "setting": "[2]; [9]", "value": 9.0}, {"measurement": "Herbicidal rating MOOVA", "setting": "[2]; [10]", "value": 9.0}, {"measurement": "herbicidal rating ZEAMX", "setting": "[3]; rate 0.0158 kg/ha", "value": 6.5}, {"measurement": "herbicidal rating ZEAMX", "setting": "[3]; rate 0.0315 kg/ha", "value": 6.5}, {"measurement": "herbicidal rating ZEAMX", "setting": "[3]; rate 0.0630 kg/ha", "value": 7.0}, {"measurement": "Preemergence herbicidal rating ABUTH", "setting": "[4]; rate 0.0156 kg/ha", "value": 6.5}, {"measurement": "Preemergence herbicidal rating ABUTH", "setting": "[4]; rate 0.0313 kg/ha", "value": 9.0}, {"measurement": "Preemergence herbicidal rating ABUTH", "setting": "[4]; rate 0.0625 kg/ha", "value": 9.0}, {"measurement": "Preemergence herbicidal rating ABUTH", "setting": "[4]; rate 0.1250 kg/ha", "value": 9.0}, {"measurement": "Preemergence herbicidal rating ABUTH", "setting": "[4]; rate 0.2500 kg/ha", "value": 9.0}, {"measurement": "Preemergence herbicidal rating ABUTH", "setting": "[4]; rate 0.5000 kg/ha", "value": 9.0}, {"measurement": "Herbicidal rating SAGPY", "setting": "[5]; [7]", "value": 0.0}, {"measurement": "Herbicidal rating SAGPY", "setting": "[5]; [8]", "value": 0.0}, {"measurement": "Herbicidal rating SAGPY", "setting": "[5]; [9]", "value": 0.0}, {"measurement": "Herbicidal rating SAGPY", "setting": "[5]; [10]", "value": 0.0}, {"measurement": "Preemergence herbicidal rating AMBEL", "setting": "[6]; rate 0.0156 kg/ha", "value": 3.0}, {"measurement": "Preemergence herbicidal rating AMBEL", "setting": "[6]; rate 0.0313 kg/ha", "value": 3.0}, {"measurement": "Preemergence herbicidal rating AMBEL", "setting": "[6]; rate 0.0625 kg/ha", "value": 8.0}, {"measurement": "Preemergence herbicidal rating AMBEL", "setting": "[6]; rate 0.1250 kg/ha", "value": 9.0}, {"measurement": "Preemergence herbicidal rating AMBEL", "setting": "[6]; rate 0.2500 kg/ha", "value": 9.0}, {"measurement": "Preemergence herbicidal rating AMBEL", "setting": "[6]; rate 0.5000 kg/ha", "value": 9.0}]}, {"smiles": "CCOC(=O)CN1C(=O)C(CC(=O)OC(C)C(=O)OCC)S/C1=N/c1cc(-n2c(=O)cc(C(F)(F)F)n(C)c2=O)c(F)cc1Cl", "note": "(stereo not drawn) [Compound 87]", "values": [{"measurement": "GLXMAW rating", "setting": "[1]; 0.1250 kg/ha", "value": 0.0}, {"measurement": "GLXMAW rating", "setting": "[1]; 0.2500 kg/ha", "value": 4.0}, {"measurement": "GLXMAW rating", "setting": "[1]; 0.5000 kg/ha", "value": 5.0}, {"measurement": "Herbicidal rating MOOVA", "setting": "[2]; [7]", "value": 9.0}, {"measurement": "Herbicidal rating MOOVA", "setting": "[2]; [8]", "value": 9.0}, {"measurement": "Herbicidal rating MOOVA", "setting": "[2]; [9]", "value": 9.0}, {"measurement": "Herbicidal rating MOOVA", "setting": "[2]; [10]", "value": 9.0}, {"measurement": "Herbicidal rating MOOVA", "setting": "[2]; [11]", "value": 9.0}, {"measurement": "ZEAMX herbicidal rating", "setting": "[3]; rate 0.0156 kg/ha", "value": 4.0}, {"measurement": "ZEAMX herbicidal rating", "setting": "[3]; rate 0.0313 kg/ha", "value": 4.5}, {"measurement": "ZEAMX herbicidal rating", "setting": "[3]; rate 0.0625 kg/ha", "value": 5.5}, {"measurement": "ZEAMX herbicidal rating", "setting": "[3]; rate 0.1250 kg/ha", "value": 7.5}, {"measurement": "ZEAMX herbicidal rating", "setting": "[3]; rate 0.2500 kg/ha", "value": 8.0}, {"measurement": "ABUTH rating", "setting": "[4]; 0.1250 kg/ha", "value": 3.0}, {"measurement": "ABUTH rating", "setting": "[4]; 0.2500 kg/ha", "value": 9.0}, {"measurement": "ABUTH rating", "setting": "[4]; 0.5000 kg/ha", "value": 9.0}, {"measurement": "Herbicidal rating SAGPY", "setting": "[5]; [7]", "value": 0.0}, {"measurement": "Herbicidal rating SAGPY", "setting": "[5]; [8]", "value": 4.0}, {"measurement": "Herbicidal rating SAGPY", "setting": "[5]; [9]", "value": 4.0}, {"measurement": "Herbicidal rating SAGPY", "setting": "[5]; [10]", "value": 5.0}, {"measurement": "Herbicidal rating SAGPY", "setting": "[5]; [11]", "value": 7.0}, {"measurement": "AMBEL rating", "setting": "[6]; 0.1250 kg/ha", "value": 0.0}, {"measurement": "AMBEL rating", "setting": "[6]; 0.2500 kg/ha", "value": 0.0}, {"measurement": "AMBEL rating", "setting": "[6]; 0.5000 kg/ha", "value": 9.0}]}, {"smiles": "Cn1c(C(F)(F)F)cc(=O)n(-c2cc(N=C3SCC(=O)N3CC(=O)NS(C)(=O)=O)c(Cl)cc2F)c1=O", "note": "[Compound 38, 2-{{2-Chloro-5-[3,6-dihydro-3-methyl-2,6-dioxo-4-(trifluoromethyl)-1(2H)-pyrimidinyl]-4-fluoro-phenyl}imino}-N-(methylsulfonyl)-4-oxo-3-thiazolidineacetamide]", "values": [{"measurement": "Preemergence herbicidal rating GLXMAW", "setting": "[1]; rate 0.0313 kg/ha", "value": 0.0}, {"measurement": "Preemergence herbicidal rating GLXMAW", "setting": "[1]; rate 0.0625 kg/ha", "value": 2.0}, {"measurement": "Preemergence herbicidal rating GLXMAW", "setting": "[1]; rate 0.1250 kg/ha", "value": 2.0}, {"measurement": "Preemergence herbicidal rating GLXMAW", "setting": "[1]; rate 0.2500 kg/ha", "value": 6.0}, {"measurement": "Herbicidal rating MOOVA", "setting": "[2]; [12]", "value": 9.0}, {"measurement": "Herbicidal rating MOOVA", "setting": "[2]; [13]", "value": 9.0}, {"measurement": "Herbicidal rating MOOVA", "setting": "[2]; [14]", "value": 9.0}, {"measurement": "Herbicidal rating MOOVA", "setting": "[2]; [15]", "value": 9.0}, {"measurement": "Postemergence herbicidal rating ZEAMX", "setting": "[3]; Rate 0.0156 kg/ha", "value": 7.5}, {"measurement": "Postemergence herbicidal rating ZEAMX", "setting": "[3]; Rate 0.0313 kg/ha", "value": 7.5}, {"measurement": "Postemergence herbicidal rating ZEAMX", "setting": "[3]; Rate 0.0625 kg/ha", "value": 7.5}, {"measurement": "Postemergence herbicidal rating ZEAMX", "setting": "[3]; Rate 0.1250 kg/ha", "value": 7.5}, {"measurement": "Postemergence herbicidal rating ZEAMX", "setting": "[3]; Rate 0.2500 kg/ha", "value": 7.5}, {"measurement": "Preemergence herbicidal rating ABUTH", "setting": "[4]; rate 0.0313 kg/ha", "value": 9.0}, {"measurement": "Preemergence herbicidal rating ABUTH", "setting": "[4]; rate 0.0625 kg/ha", "value": 9.0}, {"measurement": "Preemergence herbicidal rating ABUTH", "setting": "[4]; rate 0.1250 kg/ha", "value": 9.0}, {"measurement": "Preemergence herbicidal rating ABUTH", "setting": "[4]; rate 0.2500 kg/ha", "value": 9.0}, {"measurement": "Herbicidal rating SAGPY", "setting": "[5]; [12]", "value": 0.0}, {"measurement": "Herbicidal rating SAGPY", "setting": "[5]; [13]", "value": 3.0}, {"measurement": "Herbicidal rating SAGPY", "setting": "[5]; [14]", "value": 4.0}, {"measurement": "Herbicidal rating SAGPY", "setting": "[5]; [15]", "value": 9.0}, {"measurement": "Preemergence herbicidal rating AMBEL", "setting": "[6]; rate 0.0313 kg/ha", "value": 0.0}, {"measurement": "Preemergence herbicidal rating AMBEL", "setting": "[6]; rate 0.0625 kg/ha", "value": 0.0}, {"measurement": "Preemergence herbicidal rating AMBEL", "setting": "[6]; rate 0.1250 kg/ha", "value": 0.0}, {"measurement": "Preemergence herbicidal rating AMBEL", "setting": "[6]; rate 0.2500 kg/ha", "value": 5.0}]}]}
